Entries after “also recorded” stand apart in the source; their conditions may differ. Where two headings read alike, the source gives them in different places. No end group written: not given here. *: point of attachment. Myristoyl = CCCCCCCCCCCCCC(=O)*
Tests used:
[1] = molecular target: talin association with β3 (Homo sapiens, UniProt Q9Y490); settings: 500 μM peptide, 0.025 U/ml thrombin at 22° C.
Procedure: Cell lysates were incubated with rabbit anti-Gα13 IgG (1.5 μg/ml), anti-integrin β3 rabbit serum (5 μl/ml) or an equal amount of rabbit IgG or pre-immune serum at 4° C. overnight, and subsequently with protein A-conjugated Sepharose beads for 1 hour. For the integrin β3 clustering experiment, human platelets (3×10^8) were stimulated with 0.025 U/ml α-thrombin for 2 minutes at room temperature (to avoid platelet aggregation) with or without 2 mM RGDS, then incubated with 5 μl anti-integrin β3 8053 rabbit serum at room temperature for 1 hour, and 5 μg goat anti-rabbit secondary antibody for another 1 hour. Platelets were then solubilized in modified RIPA Buffer. For the un-clustering control and pre-immune serum control, cells were solubilized in modified RIPA Buffer first, than incubated with 5 μl 8053 serum or pre-immune serum. After 3-6 washes with lysis buffer, immunoprecipitates were analyzed by SDS-polyacrylamide gel electrophoresis and Western blots using antibodies against β3, talin, or Gα13. In some experiments, 500 μM control or inhibitor peptides, mP5, mP7 and mP13 were incubated with platelet lysates prior to immunoprecipitation, or 2 mM RGDS was added into washed human platelets before stimulation by 0.025 U/ml α-thrombin. GST bead pull down analysis was previously described^8. […] Bead-bound proteins were analyzed by immunoblotting.

c-Src = settings: human platelets adherent to fibrinogen
Procedure: (FIG. 3A) Washed human platelets pre-treated with DMSO, mSRI, or scrambled control peptide were allowed to adhere to fibrinogen and then solubilized at indicated time points. Proteins from lysates were immunoblotted with antibodies to c-Src phosphorylated at Tyr^416, c-Src, or RhoA. GTP-bound RhoA was measured by association with GST-RBD beads (25). See FIG. S4 for quantitative data. (FIG. 3B) Spreading of platelets treated with 0.1% DMSO, scrambled control peptide, or mSRI, in the absence or presence of C3 toxin, Y27632, or 0.01 U/ml thrombin. Platelets were stained with Alexa Fluor 546-conjugated phalloidin.
(FIG. 13A) Platelets were treated with 500 μM control peptide, mP13, mP7, or mP5 peptides, then immunoprecipitated with anti-Gα13 antibody or equal amount of control rabbit IgG. Lysates and immunoprecipitates were immunoblotted with anti-Gα13 or anti-β3 (MAb15) antibody. (FIG. 13B) Human platelets treated with DMSO, Myr-Scrambled peptide or mP5 peptide were allowed to adhere to immobilized fibrinogen, solubilized and analyzed for RhoA activation and c-Src Tyr^416 phosphorylation. (FIG. 13C) Confocal microscopy images of platelets treated with DMSO, Myristoylated Scrambled peptides, and mP5 peptide treated platelets adherent on fibrinogen for 30 minutes, without or with Rho kinase inhibitor Y27632. Merged […] (green) fluorescence and Alexa Fluor 546-conjugated phalloidin (red) fluorescence. (FIG. 13D) Flow cytometry analysis of PAR4AP (50 μM)-induced Oregon-green labelled fibrinogen binding to human platelets pre-treated with DMSO, 250 μM Myr-Scrambled peptide or 250 μM mP5 peptide. (FIG. 13E) Platelets were preincubated with mP5 or scrambled control peptides and then stimulated with thrombin in a platelet aggregometer at 37° C. Platelet aggregation traces were recorded.
Western blot bands were scanned, and analyzed for uncalibrated optical density using NIH Image J software. Student t-test was used to determine statistical significance.

RhoA = RhoA activity assay (GST-RBD pull down) in platelets; format: cell-based, human; settings: human platelets adherent to fibrinogen
Procedure: Platelets in modified Tyrode's buffer or adherent on immobilized fibrinogen were lysed quickly in 0.8 ml lysis buffer (50 mM Tris, pH 7.4, 10 mM MgCl2, 500 mM NaCl, 1% Triton X-100, 0.1% SDS, 0.5% deoxycholate, 10 μg/ml each of aprotinin and leupeptin, 1 mM phenylmethylsulfonyl fluoride, and 200 μM sodium vanadate). Lysates were cleared by centrifugation at 18,000 g for 2 minutes at 4° C., and the supernatant was incubated for 1 hour with 30 μg purified GST-Rhotekin RhoA-binding domain fusion protein (GST-RBD) bound to glutathione-Sepharose beads (S10). Samples were washed three times using washing buffer (50 mM Tris, pH 7.4, 10 mM MgCl2, 150 mM NaCl, 1% Triton X-100) and then immunoblotted with an anti-RhoA monoclonal antibody. Cell lysates were also immunoblotted with anti-RhoA as loading control.

human platelets [2] = format: cell-based; settings: for integrin outside-in signaling (early phase): human platelets on fibrinogen, 250 μM peptide; for platelet spreading on fibrinogen: human platelets, immobilized fibrinogen
Procedure: The clots were photographed at various time points. […] Statistical significance was determined using t-test.
Studies using human platelets were approved by institutional review board of University of Illinois at Chicago.
Coverslides were pre-coated with 100 μg/ml fibrinogen and blocked with 5% BSA in PBS. 300 μl αIIbβ3-expressing CHO cells (expressing WT or mutant integrins; 1×10^5/ml) or platelets (1×10^7/ml) suspended in Tyrode's buffer were added to coverslides and incubated at 37° C. for various lengths of time. Cells were fixed with 4% paraformaldehyde (PFA) for 10 minutes and permeabilized with 0.1% Triton X-100 in PBS for 2 minutes. After blocking with 5% BSA for 10 minutes, coverslides were incubated with 0.2 μg/ml mAb 15, or Alexa Fluor-546 conjugated phalloidin. For mouse platelets re-express wild type β3 or the AAA mutant of β3, β3 was immuno-stained with the anti-β3 monoclonal antibody MAb 15 and Alexa Fluor-546 conjugated phalloidin. The slides were scanned with a Zeiss LSM5 10 META confocal microscope as previously described^11

human platelets [3] = settings: PAR4AP 50 μM, 250 μM peptide (150 μM also in FIG. 17G)
Procedure: Washed human or mouse platelets resuspended in modified Tyrode's buffer (3×10^8/ml, 50 μl) were incubated with 10 μg/ml Oregon Green^488-conjugated fibrinogen (Molecular Probes) and 50 μM PAR4AP for 30 minutes at 22° C. as previously described^26. The reaction was diluted with 0.5 ml of PBS and analyzed by flow cytometry using FACS Caliber (BD Biosciences, San Jose, Calif.).

human platelets [4] = settings: resting platelets, 250 μM peptide
Procedure: Platelet Adhesion Assays were carried out as follows: As described before(6), microtiter wells were coated with 30 μg/ml fibrinogen in PBS overnight. Washed human platelets in modified Tyrode's buffer in the absence or presence of 1 mM MnCl2 were incubated in the microtiter wells for one hour at 37° C. in a CO2 incubator. After 3 washes, 50 μl of reaction buffer (0.3% p-nitrophenyl phosphate (Sigma) in 1% Triton-X-100, 50 mM sodium acetate, pH 5.0) was added into each microtiter well and incubated at 37° C. for one hour. The reaction was stopped by adding 50 μl of 1 M NaOH. Results were determined by reading OD at 405 nm wave length. The percentage of platelet adhesion was estimated from the ratio of the readings of adherent platelets to that of total platelets. Statistic significance was determined using t test (n=3).

Chain of talin association with β3 (Q9Y490 whole entry): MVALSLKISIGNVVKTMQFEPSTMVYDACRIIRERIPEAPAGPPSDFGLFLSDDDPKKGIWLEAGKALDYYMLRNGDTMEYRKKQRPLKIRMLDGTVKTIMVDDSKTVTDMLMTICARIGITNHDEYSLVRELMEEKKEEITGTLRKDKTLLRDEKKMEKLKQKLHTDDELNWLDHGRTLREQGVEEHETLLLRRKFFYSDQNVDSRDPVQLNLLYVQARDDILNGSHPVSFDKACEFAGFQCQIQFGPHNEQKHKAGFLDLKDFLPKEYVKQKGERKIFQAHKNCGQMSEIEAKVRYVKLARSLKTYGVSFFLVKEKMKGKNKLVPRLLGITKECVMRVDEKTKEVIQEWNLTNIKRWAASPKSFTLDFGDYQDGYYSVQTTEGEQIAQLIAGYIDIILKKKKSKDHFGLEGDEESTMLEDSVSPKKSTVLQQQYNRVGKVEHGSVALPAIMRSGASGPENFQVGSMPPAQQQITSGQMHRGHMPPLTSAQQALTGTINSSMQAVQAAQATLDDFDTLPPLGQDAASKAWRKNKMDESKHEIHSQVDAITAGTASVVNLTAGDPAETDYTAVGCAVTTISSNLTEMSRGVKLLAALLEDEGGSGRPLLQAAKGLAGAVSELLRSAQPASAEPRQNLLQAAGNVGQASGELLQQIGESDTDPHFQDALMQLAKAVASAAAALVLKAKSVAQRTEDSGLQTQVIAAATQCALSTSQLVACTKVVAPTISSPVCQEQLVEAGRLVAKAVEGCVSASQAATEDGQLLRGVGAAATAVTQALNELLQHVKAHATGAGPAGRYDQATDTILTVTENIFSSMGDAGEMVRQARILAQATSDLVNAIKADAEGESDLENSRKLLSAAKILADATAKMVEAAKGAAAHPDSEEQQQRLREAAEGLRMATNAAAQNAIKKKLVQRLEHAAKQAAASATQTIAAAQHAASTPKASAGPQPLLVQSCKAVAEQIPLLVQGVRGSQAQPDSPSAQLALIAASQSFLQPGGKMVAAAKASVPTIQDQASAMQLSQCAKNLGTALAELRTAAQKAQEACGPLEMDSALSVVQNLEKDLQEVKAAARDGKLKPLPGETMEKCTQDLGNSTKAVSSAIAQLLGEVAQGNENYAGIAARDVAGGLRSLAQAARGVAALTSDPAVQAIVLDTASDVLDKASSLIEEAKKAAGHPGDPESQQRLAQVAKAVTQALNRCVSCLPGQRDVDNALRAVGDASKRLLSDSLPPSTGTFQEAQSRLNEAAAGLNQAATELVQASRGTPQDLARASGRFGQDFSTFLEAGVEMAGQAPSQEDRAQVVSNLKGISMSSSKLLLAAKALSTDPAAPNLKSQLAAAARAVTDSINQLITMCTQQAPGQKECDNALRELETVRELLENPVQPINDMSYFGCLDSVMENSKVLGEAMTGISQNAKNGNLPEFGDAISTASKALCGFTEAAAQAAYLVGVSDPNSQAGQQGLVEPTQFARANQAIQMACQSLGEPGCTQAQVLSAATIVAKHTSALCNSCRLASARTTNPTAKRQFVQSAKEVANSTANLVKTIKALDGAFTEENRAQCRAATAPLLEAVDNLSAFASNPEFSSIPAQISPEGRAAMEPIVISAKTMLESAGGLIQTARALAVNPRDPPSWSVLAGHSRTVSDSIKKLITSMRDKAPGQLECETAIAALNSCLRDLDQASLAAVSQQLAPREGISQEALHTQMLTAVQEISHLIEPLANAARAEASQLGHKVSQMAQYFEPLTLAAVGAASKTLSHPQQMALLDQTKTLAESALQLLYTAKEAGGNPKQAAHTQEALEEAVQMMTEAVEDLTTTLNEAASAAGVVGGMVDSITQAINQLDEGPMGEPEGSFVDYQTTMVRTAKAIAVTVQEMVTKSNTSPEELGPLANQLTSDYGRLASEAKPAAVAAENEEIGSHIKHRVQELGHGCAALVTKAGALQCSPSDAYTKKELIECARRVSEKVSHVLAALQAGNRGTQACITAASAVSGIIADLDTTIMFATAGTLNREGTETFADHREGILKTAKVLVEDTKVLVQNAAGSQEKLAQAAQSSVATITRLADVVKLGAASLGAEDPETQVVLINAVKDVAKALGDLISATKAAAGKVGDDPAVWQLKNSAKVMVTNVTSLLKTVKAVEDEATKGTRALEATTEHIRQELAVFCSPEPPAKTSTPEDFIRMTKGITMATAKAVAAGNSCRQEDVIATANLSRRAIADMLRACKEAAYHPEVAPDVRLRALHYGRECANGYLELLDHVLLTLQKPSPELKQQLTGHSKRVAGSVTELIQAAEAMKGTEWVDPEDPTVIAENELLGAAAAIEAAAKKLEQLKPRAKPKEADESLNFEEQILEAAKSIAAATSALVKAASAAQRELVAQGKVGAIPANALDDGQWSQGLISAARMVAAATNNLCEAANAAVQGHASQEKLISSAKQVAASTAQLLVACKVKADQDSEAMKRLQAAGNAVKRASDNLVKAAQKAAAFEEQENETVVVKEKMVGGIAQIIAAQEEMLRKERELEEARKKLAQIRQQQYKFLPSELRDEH

Substance | talin association with β3 [1] | integrin-dependent phosphorylation of c-Src Tyr416 (c-Src activation) (c-Src) | integrin-dependent phosphorylation of c-Src Tyr416 (c-Src activation) (c-Src; listed as Myr-P5) | RhoA activation (RhoA activity) (RhoA) | c-Src-dependent transient RhoA inhibition (RhoA) | integrin outside-in signaling (early phase) (human platelets [2]) | platelet spreading on fibrinogen (human platelets [2]) | platelet spreading on fibrinogen (human platelets [2]; listed as Myr-P5) | agonist (PAR4AP)-induced fibrinogen binding to platelets (inside-out signaling) (human platelets [3]) | agonist (PAR4AP)-induced fibrinogen binding to platelets (inside-out signaling) (human platelets [3]; listed as Myr-P5) | platelet adhesion to immobilized fibrinogen (human platelets [4]) | thrombin-promoted platelet spreading (human platelets [2]; 0.01 U/ml thrombin)
Myr-EEERA [mP5] | not | inhibited | decreased | increased | inhibited | selectively inhibited | abolished; also recorded: inhibited | inhibited | no effect | without affecting | nor does it affect | 
Myristoyl-KFEEERA [mP7] |  | inhibited |  |  | inhibited |  | abolished |  |  |  |  | 
Myristoyl-KFEEERARAKWDT [mP13] | inhibited | inhibited |  |  | inhibited | inhibited | abolished |  |  |  | inhibited | 
Myristoyl-LLARRPTKGIHEY [mSRI] |  | inhibited |  | accelerated |  |  | inhibited |  |  |  |  | abolished

Reference: patent publication US10738080B2, “Inhibitors of beta integrin-G protein alpha subunit binding interactions” (priority 2010, dated 2020)
